Source: ChEMBL document CHEMBL1201862, “PubChem BioAssay data set” (2004)
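Cells were grown in 96-well plates and exposed to each compound for 48 hours at five concentrations; endpoints were interpolated linearly between bracketing concentrations, or set to the highest concentration if not reached. GI50 is the concentration that inhibits growth by half.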 Activity calls are given as the source filed them. Rule as the data show it: active = GI50 up to about 1.1 µM and inactive = higher.

How the values were obtained:
Experiment in all cases: NCI anticancer screen, dose series, 48 h
A549 = tested on: A549
ACHN = tested on: ACHN
CAKI-1 = tested on: CAKI-1
CCRF-CEM = tested on: CCRF-CEM
EKVX = tested on: EKVX
HCC 2998 = tested on: HCC 2998
HCT-116 = tested on: HCT-116
HL-60 = tested on: HL-60
HOP-62 = tested on: HOP-62
IGROV-1 = tested on: IGROV-1
K562 = tested on: K562
KM12 = tested on: KM12
LOX IMVI = tested on: LOX IMVI
M14 = tested on: M14
RPMI-8226 = tested on: RPMI-8226
SK-OV-3 = tested on: SK-OV-3
SNB-75 = tested on: SNB-75
SR = tested on: SR
TK-10 = tested on: TK-10
BT-549 = tested on: BT-549

Row | SMILES | GI50 (A549) | GI50 (ACHN) | GI50 (CAKI-1) | GI50 (CCRF-CEM) | GI50 (EKVX) | GI50 (HCC 2998) | GI50 (HCT-116) | GI50 (HL-60) | GI50 (HOP-62) | GI50 (IGROV-1) | GI50 (K562) | GI50 (KM12) | GI50 (LOX IMVI) | GI50 (M14) | GI50 (RPMI-8226) | GI50 (SK-OV-3) | GI50 (SNB-75) | GI50 (SR) | GI50 (TK-10) | GI50 (BT-549)
1 | O=NN(CCCl)C(=O)NC1CCC(CC2CCC(NC(=O)N(CCCl)N=O)CC2)CC1 (stereo not drawn) | 33 µM (inactive) | 38.1 µM (inactive) | 31.3 µM (inactive) | 1.05 µM (active) | > 63.4 µM (inactive) | > 100 µM (inactive) | 30.1 µM (inactive) | 16.4 µM (inactive) | 1.97 µM (inactive) | 29.9 µM (inactive) | 2.26 µM (inactive) | > 73.3 µM (inactive) | 0.91 µM (active) | 96.8 µM (inactive) | 1.96 µM (inactive) | 2.23 µM (inactive) | 16.6 µM (inactive) | 17.9 µM (inactive) | 32.5 µM (inactive) | –
2 | CCCCOC(=O)NC(=O)c1cn(CCCOC(=O)CCCCCCCCC(=O)OCCCn2cc(C(=O)NC(=O)OCCCC)c(=O)n(C)c2=O)c(=O)n(C)c1=O | > 100 µM (inactive) | > 100 µM (inactive) | > 100 µM (inactive) | > 100 µM (inactive) | > 100 µM (inactive) | > 100 µM (inactive) | > 100 µM (inactive) | > 100 µM (inactive) | > 100 µM (inactive) | > 100 µM (inactive) | > 100 µM (inactive) | > 100 µM (inactive) | – | > 100 µM (inactive) | > 100 µM (inactive) | – | 58.1 µM (inactive) | > 100 µM (inactive) | > 100 µM (inactive) | –
3 | CCOC(=O)/C(=C/c1ccccn1)C(=O)c1ccccc1 | 19.2 µM (inactive) | 20.4 µM (inactive) | 14.5 µM (inactive) | 2.81 µM (inactive) | 19.1 µM (inactive) | 17.3 µM (inactive) | 13.8 µM (inactive) | 2.19 µM (inactive) | 15.2 µM (inactive) | 16.3 µM (inactive) | 5.19 µM (inactive) | 11.9 µM (inactive) | 2.48 µM (inactive) | 15.1 µM (inactive) | 3.42 µM (inactive) | 17.9 µM (inactive) | 13.8 µM (inactive) | 3.32 µM (inactive) | 17.5 µM (inactive) | –
4 | OC1CCCC1C(O)(C(F)(F)F)C(F)(F)F (stereo not drawn) | > 100 µM (inactive) | > 100 µM (inactive) | > 100 µM (inactive) | > 100 µM (inactive) | > 100 µM (inactive) | > 100 µM (inactive) | > 100 µM (inactive) | > 100 µM (inactive) | > 100 µM (inactive) | > 100 µM (inactive) | > 100 µM (inactive) | > 100 µM (inactive) | > 100 µM (inactive) | > 100 µM (inactive) | > 100 µM (inactive) | > 100 µM (inactive) | > 100 µM (inactive) | > 100 µM (inactive) | > 100 µM (inactive) | –
5 | Cc1cc(-c2ccc(C(=O)O)[nH]2)on1 | 34.8 µM (inactive) | > 100 µM (inactive) | 79.1 µM (inactive) | – | 42.1 µM (inactive) | 55 µM (inactive) | 29.2 µM (inactive) | – | 65.2 µM (inactive) | 50.4 µM (inactive) | 56 µM (inactive) | > 100 µM (inactive) | – | 52 µM (inactive) | 62.7 µM (inactive) | 32.6 µM (inactive) | 44.3 µM (inactive) | – | > 100 µM (inactive) | > 100 µM (inactive)
6 | Cc1cccc(/N=C2\NC(=O)C(CC(=O)Nc3ccc(C)cc3C)S2)c1 (stereo not drawn) | > 100 µM (inactive) | > 100 µM (inactive) | 60.4 µM (inactive) | 92 µM (inactive) | 47.1 µM (inactive) | > 100 µM (inactive) | > 100 µM (inactive) | > 100 µM (inactive) | – | > 100 µM (inactive) | 65.8 µM (inactive) | – | > 100 µM (inactive) | > 100 µM (inactive) | 55.3 µM (inactive) | – | > 100 µM (inactive) | 52.6 µM (inactive) | > 100 µM (inactive) | –
7 | CCOC(=O)CC1CCN(C(=O)c2ccccc2)C2Cc3c([nH]c4ccccc34)C12C[N+](=O)[O-] (stereo not drawn) | – | 67 µM (inactive) | 62.2 µM (inactive) | 12.6 µM (inactive) | > 100 µM (inactive) | – | – | 38.7 µM (inactive) | 46.1 µM (inactive) | 58.7 µM (inactive) | 36.4 µM (inactive) | 71 µM (inactive) | > 100 µM (inactive) | 63.2 µM (inactive) | – | > 100 µM (inactive) | 56.6 µM (inactive) | 39.8 µM (inactive) | > 100 µM (inactive) | > 100 µM (inactive)
8 | O=[N+]([O-])C(Cl)=C/C(=C(\Cl)SCc1ccccc1)[N+](=O)[O-] | 24.8 µM (inactive) | 17 µM (inactive) | 18.1 µM (inactive) | 3.24 µM (inactive) | 17.7 µM (inactive) | 30.6 µM (inactive) | 18.4 µM (inactive) | 5.62 µM (inactive) | 18.9 µM (inactive) | 28.3 µM (inactive) | 13.3 µM (inactive) | 29.5 µM (inactive) | 16.5 µM (inactive) | 20 µM (inactive) | – | 59.7 µM (inactive) | 49.5 µM (inactive) | – | 23.7 µM (inactive) | 14.7 µM (inactive)
9 | CCOC(OCC)(OCC)C(Br)CC (stereo not drawn) | > 100 µM (inactive) | > 100 µM (inactive) | > 100 µM (inactive) | 28.2 µM (inactive) | > 100 µM (inactive) | > 100 µM (inactive) | 0.0281 µM (active) | > 100 µM (inactive) | > 100 µM (inactive) | > 100 µM (inactive) | > 100 µM (inactive) | > 100 µM (inactive) | 88.1 µM (inactive) | > 100 µM (inactive) | 18.8 µM (inactive) | > 100 µM (inactive) | > 100 µM (inactive) | 21.6 µM (inactive) | > 100 µM (inactive) | –
10 | O=C(CSC1=NCCN1)c1ccccc1 | > 100 µM (inactive) | > 100 µM (inactive) | > 100 µM (inactive) | – | > 100 µM (inactive) | – | > 100 µM (inactive) | < 0.01 µM (active) | > 100 µM (inactive) | > 100 µM (inactive) | > 100 µM (inactive) | > 100 µM (inactive) | > 100 µM (inactive) | > 100 µM (inactive) | > 100 µM (inactive) | > 100 µM (inactive) | > 100 µM (inactive) | > 100 µM (inactive) | > 100 µM (inactive) | > 100 µM (inactive)
11 | CCOc1ccc(OCC(=O)O)c2c1CCCC2=O | > 100 µM (inactive) | > 100 µM (inactive) | – | > 10 µM (inactive) | > 100 µM (inactive) | > 100 µM (inactive) | – | > 100 µM (inactive) | > 100 µM (inactive) | > 100 µM (inactive) | > 10 µM (inactive) | > 100 µM (inactive) | > 100 µM (inactive) | > 100 µM (inactive) | > 100 µM (inactive) | > 100 µM (inactive) | > 100 µM (inactive) | > 100 µM (inactive) | > 100 µM (inactive) | –
12 | O=C(Nc1nc(C23CC4CC(CC(C4)C2)C3)cs1)c1cc2ccc(O)cc2oc1=O | 15.9 µM (inactive) | 10.6 µM (inactive) | 19.6 µM (inactive) | 14.7 µM (inactive) | 13.2 µM (inactive) | 10.6 µM (inactive) | 10.1 µM (inactive) | 10.3 µM (inactive) | 15.2 µM (inactive) | 7.41 µM (inactive) | 4.88 µM (inactive) | 6.05 µM (inactive) | 8.07 µM (inactive) | – | 5.35 µM (inactive) | – | – | – | 26.8 µM (inactive) | > 10 µM (inactive)
13 | CCCCCCCCCCCCCCCCC1=CC(=O)C=C(OC)C1=O | 89.5 µM (inactive) | > 100 µM (inactive) | > 100 µM (inactive) | 29.4 µM (inactive) | > 100 µM (inactive) | > 100 µM (inactive) | 56 µM (inactive) | > 100 µM (inactive) | > 100 µM (inactive) | > 100 µM (inactive) | 47.4 µM (inactive) | 69.2 µM (inactive) | 65.3 µM (inactive) | > 100 µM (inactive) | 91.2 µM (inactive) | > 100 µM (inactive) | > 100 µM (inactive) | 34.3 µM (inactive) | > 100 µM (inactive) | –
14 | O=C1CSSCC(=O)Nc2ccccc2N1 | > 100 µM (inactive) | > 100 µM (inactive) | > 100 µM (inactive) | > 100 µM (inactive) | > 100 µM (inactive) | – | > 100 µM (inactive) | > 100 µM (inactive) | > 100 µM (inactive) | > 100 µM (inactive) | > 100 µM (inactive) | > 100 µM (inactive) | > 100 µM (inactive) | > 100 µM (inactive) | > 100 µM (inactive) | > 100 µM (inactive) | – | > 100 µM (inactive) | > 100 µM (inactive) | > 100 µM (inactive)
15 | COc1cccc2c1C(=O)c1c(O)c3c(c(O)c1C2=O)C[C@@](O)(C(=O)CO)CC3OC1CC(NCCCCC(OC(C)=O)OC(C)=O)C(O)C(C)O1 (stereo partly drawn) | 0.00243 µM (active) | 0.00243 µM (active) | 0.00251 µM (active) | 0.00227 µM (active) | – | 0.00223 µM (active) | – | 0.00202 µM (active) | 0.0021 µM (active) | 0.0046 µM (active) | 0.00197 µM (active) | 0.0024 µM (active) | 0.00179 µM (active) | 0.00169 µM (active) | 0.00261 µM (active) | 0.003 µM (active) | 0.00137 µM (active) | 0.000337 µM (active) | 0.00322 µM (active) | –
16 | CC(C)c1ccc(O)c(=O)cc1 [GAMMA-THUJAPLICIN] | 6.59 µM (inactive) | 6.05 µM (inactive) | 11.1 µM (inactive) | 1.86 µM (inactive) | 10.1 µM (inactive) | 7.08 µM (inactive) | 2.8 µM (inactive) | 2.02 µM (inactive) | 4.41 µM (inactive) | 10.4 µM (inactive) | 9.33 µM (inactive) | 6.32 µM (inactive) | 4.29 µM (inactive) | 7.64 µM (inactive) | 5.13 µM (inactive) | 42.8 µM (inactive) | 20.6 µM (inactive) | 1.66 µM (inactive) | 16.1 µM (inactive) | –
